Experimental data from ChEMBL document CHEMBL1926648, “Synthesis and biological activity of dihydroimidazole and 3,4-dihydrobenzo[4,5]imidazo[1,2-a][1,3,5]triazins” (2012).

Legend:
Assay type in all cases: functional
Conditions in all cases: read-out: IZ
Bacillus cereus [1] = test: Antibacterial activity against Bacillus cereus at 50000 ppm after 24 hrs by agar diffusion method
Bacillus subtilis [2] = test: Antibacterial activity against Bacillus subtilis at 30000 ppm after 24 hrs by agar diffusion method
Staphylococcus aureus [3] = test: Antibacterial activity against Staphylococcus aureus at 50000 ppm after 24 hrs by agar diffusion method
Kocuria rosea [4] = test: Antibacterial activity against Micrococcus roseus at 30000 ppm after 24 hrs by agar diffusion method
Escherichia coli [5] = test: Antibacterial activity against Escherichia coli at 30000 ppm after 24 hrs by agar diffusion method
Bacillus subtilis [6] = test: Antibacterial activity against Bacillus subtilis at 50000 ppm after 24 hrs by agar diffusion method
Kocuria rosea [7] = test: Antibacterial activity against Micrococcus roseus at 50000 ppm after 24 hrs by agar diffusion method
Staphylococcus aureus [8] = test: Antibacterial activity against Staphylococcus aureus at 30000 ppm after 24 hrs by agar diffusion method
Micrococcus luteus [9] = test: Antibacterial activity against Micrococcus luteus at 50000 ppm after 24 hrs by agar diffusion method
Bacillus subtilis [10] = test: Antibacterial activity against Bacillus subtilis at 10000 ppm after 24 hrs by agar diffusion method
Pseudomonas aeruginosa [11] = test: Antibacterial activity against Pseudomonas aeruginosa at 50000 ppm after 24 hrs by agar diffusion method
Escherichia coli [12] = test: Antibacterial activity against Escherichia coli at 50000 ppm after 24 hrs by agar diffusion method
Escherichia coli [13] = test: Antibacterial activity against Escherichia coli at 10000 ppm after 24 hrs by agar diffusion method
Pseudomonas aeruginosa [14] = test: Antibacterial activity against Pseudomonas aeruginosa at 30000 ppm after 24 hrs by agar diffusion method
Staphylococcus aureus [15] = test: Antibacterial activity against Staphylococcus aureus at 10000 ppm after 24 hrs by agar diffusion method
Kocuria rosea [16] = test: Antibacterial activity against Micrococcus roseus at 10000 ppm after 24 hrs by agar diffusion method
Micrococcus luteus [17] = test: Antibacterial activity against Micrococcus luteus at 30000 ppm after 24 hrs by agar diffusion method
Pseudomonas aeruginosa [18] = test: Antibacterial activity against Pseudomonas aeruginosa at 10000 ppm after 24 hrs by agar diffusion method
Bacillus cereus [19] = test: Antibacterial activity against Bacillus cereus at 10000 ppm after 24 hrs by agar diffusion method
Bacillus cereus [20] = test: Antibacterial activity against Bacillus cereus at 30000 ppm after 24 hrs by agar diffusion method
Micrococcus luteus [21] = test: Antibacterial activity against Micrococcus luteus at 10000 ppm after 24 hrs by agar diffusion method

SMILES	zone of inhibition at 50000 ppm (Bacillus cereus [1]) [mm]	zone of inhibition at 30000 ppm (Bacillus subtilis [2]) [mm]	zone of inhibition at 50000 ppm (Staphylococcus aureus [3]) [mm]	zone of inhibition at 30000 ppm (Kocuria rosea [4]) [mm]	zone of inhibition at 30000 ppm (Escherichia coli [5]) [mm]	zone of inhibition at 50000 ppm (Bacillus subtilis [6]) [mm]	zone of inhibition at 50000 ppm (Kocuria rosea [7]) [mm]	zone of inhibition at 30000 ppm (Staphylococcus aureus [8]) [mm]	zone of inhibition at 50000 ppm (Micrococcus luteus [9]) [mm]	zone of inhibition at 10000 ppm (Bacillus subtilis [10]) [mm]	zone of inhibition at 50000 ppm (Pseudomonas aeruginosa [11]) [mm]	zone of inhibition at 50000 ppm (Escherichia coli [12]) [mm]	zone of inhibition at 10000 ppm (Escherichia coli [13]) [mm]	zone of inhibition at 30000 ppm (Pseudomonas aeruginosa [14]) [mm]	zone of inhibition at 10000 ppm (Kocuria rosea [16]) [mm]	zone of inhibition at 30000 ppm (Micrococcus luteus [17]) [mm]	zone of inhibition at 10000 ppm (Pseudomonas aeruginosa [18]) [mm]	zone of inhibition at 10000 ppm (Bacillus cereus [19]) [mm]	zone of inhibition at 30000 ppm (Bacillus cereus [20]) [mm]	zone of inhibition at 10000 ppm (Micrococcus luteus [21]) [mm]	also measured
Clc1c[nH]/c(=N/c2nc3ccccc3[nH]2)[nH]1	6	10	9	3	13	14	8	5	4	6	2	18	9	–	–	–	–	–	–	–	–
Nc1c[nH]/c(=N/c2nc3ccccc3[nH]2)[nH]1	4	–	15	8	8	6	12	9	8	–	9	14	3	7	6	4	4	–	–	–	zone of inhibition at 10000 ppm (Staphylococcus aureus [15]): 4 mm
CC1(C)[C@@H]2CC[C@@]1(C)C1(C2)NC(N)=Nc2nc3ccccc3n21 (stereo partly specified)	4	5	8	2	9	6	5	3	–	3	–	12	4	–	–	–	–	–	–	–	–
c1ccc(-c2c[nH]/c(=N/c3nc4ccccc4[nH]3)[nH]2)cc1	9	11	9	8	6	14	10	5	3	9	11	8	4	6	3	–	4	6	8	–	–
Cc1c[nH]/c(=N/c2nc3ccccc3[nH]2)[nH]1	12	13	6	7	4	15	9	3	8	10	7	8	1	4	5	7	–	6	9	6	–
CC1=NN(c2ccccc2)C2(C1)NC(N)=Nc1nc3ccccc3n12 (stereo unspecified)	4	3	4	3	13	9	8	–	11	–	6	16	8	4	–	9	–	–	–	5	–
